Test results taken from PubChem BioAssay (NCI).
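Protocol summary: plate cells (96-well), add compound at 5 concentrations, incubate 48 h, interpolate endpoints linearly. At the GI50, growth is halved. Definition used: TGI = concentration required for complete inhibition of growth.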

Columns and labels:
Test in all cases: DTP human tumour cell line panel, 48 h
[1] = test system: SN12C renal
[2] = test system: HOP-62 NSCLC
[3] = test system: PC-3 prostate
[4] = test system: SR leukemia
[5] = test system: DU-145 prostate
[6] = test system: SNB-75 CNS
[7] = test system: CAKI-1 renal
[8] = test system: HCC-2998 colon
[9] = test system: LOX IMVI melanoma
[10] = test system: MOLT-4 leukemia
[11] = test system: SK-MEL-2 melanoma
[12] = test system: MCF7 breast
[13] = test system: A549 NSCLC
[14] = test system: UO-31 renal
[15] = test system: HCT-116 colon
[16] = test system: OVCAR-3 ovarian
[17] = test system: SK-OV-3 ovarian
[18] = test system: SK-MEL-5 melanoma
[19] = test system: NCI/ADR-RES ovarian
[20] = test system: COLO 205 colon
[21] = test system: U251 CNS
[22] = test system: M14 melanoma
[23] = test system: HT29 colon
[24] = test system: OVCAR-4 ovarian
[25] = test system: RPMI-8226 leukemia
[26] = test system: K-562 leukemia
[27] = test system: SK-MEL-28 melanoma
[28] = test system: OVCAR-5 ovarian
[29] = test system: NCI-H226 lung
[30] = test system: HS 578T breast
[31] = test system: SF-268 CNS
[32] = test system: SNB-19 CNS
[33] = test system: IGROV1 ovarian
[34] = test system: T-47D breast
[35] = test system: OVCAR-8 ovarian
[36] = test system: SW-620 colon
[37] = test system: EKVX NSCLC
[38] = test system: SF-295 CNS
[39] = test system: BT-549 breast
[40] = test system: CCRF-CEM leukemia
[41] = test system: UACC-62 melanoma
[42] = test system: UACC-257 melanoma
[43] = test system: NCI-H522 lung
[44] = test system: SF-539 CNS
[45] = test system: HL-60(TB) leukemia
[46] = test system: MALME-3M melanoma
[47] = test system: ACHN renal
[48] = test system: TK-10 renal
[49] = test system: NCI-H460 lung
[50] = test system: HOP-92 NSCLC
[51] = test system: NCI-H23 lung
[52] = test system: 786-0 renal
[53] = test system: MDA-MB-435
[54] = test system: KM12 colon
[55] = test system: HCT-15 colon
[56] = test system: MDA-MB-231 breast
[57] = test system: RXF 393 renal

In the case of `CC(=O)Nc1ccc(-n2cnc3cc(-c4ccc(OCCN5CCCCC5)cc4)ccc32)cc1`, the GI50 [1] was 4.48 µM, the TGI [1] was 9.72 µM and the GI50 [2] was 5.08 µM. For the same compound, the TGI [2] was 11.6 µM, the GI50 [3] was 3.91 µM and the TGI [3] was 9.83 µM. It also gave a GI50 [4] of 0.895 µM, a TGI [4] of 3.74 µM and a GI50 [5] of 10.2 µM. For the same compound, the TGI [5] was > 33.3 µM, the GI50 [6] was 4.11 µM and the TGI [6] was 8.31 µM. It also gave a GI50 [7] of 6.01 µM, a TGI [7] of 11.7 µM and a GI50 [8] of 5.98 µM. The TGI [8] was 14.6 µM, the GI50 [9] was 4.5 µM and the TGI [9] was 8.88 µM. For the same compound, the GI50 [10] was 5.71 µM, the TGI [10] was 25 µM and the GI50 [11] was 5.81 µM. For the same compound, the TGI [11] was 11.5 µM, the GI50 [12] was 4.16 µM and the TGI [12] was 13.6 µM. It also gave a GI50 [13] of 1.4 µM, a TGI [13] of 5.74 µM and a GI50 [14] of 2.33 µM. For the same compound, the TGI [14] was 7.06 µM, the GI50 [15] was 0.667 µM and the TGI [15] was 1.3 µM. For the same compound, the GI50 [16] was 5.27 µM, the TGI [16] was 10.4 µM and the GI50 [17] was 6.2 µM. For the same compound, the TGI [17] was 12.2 µM, the GI50 [18] was 5.22 µM and the TGI [18] was 9.72 µM. The GI50 [19] was 7.75 µM, the TGI [19] was 22.5 µM and the GI50 [20] was 5.2 µM. It also gave a TGI [20] of 10.7 µM, a GI50 [21] of 4.16 µM and a TGI [21] of 9.14 µM. For the same compound, the GI50 [22] was 5.34 µM, the TGI [22] was 10.4 µM and the GI50 [23] was 1.12 µM. It also gave a TGI [23] of 3.92 µM, a GI50 [24] of 4.85 µM and a TGI [24] of 11.7 µM. For the same compound, the GI50 [25] was 5.16 µM, the TGI [25] was 12.7 µM and the GI50 [26] was 0.944 µM. The TGI [26] was > 33.3 µM, the GI50 [27] was 4.45 µM and the TGI [27] was 9.06 µM. It also gave a GI50 [28] of 6.22 µM, a TGI [28] of 14.6 µM and a GI50 [29] of 2.92 µM. The TGI [29] was 8.43 µM, the GI50 [30] was 4.15 µM and the TGI [30] was 10.8 µM. For the same compound, the GI50 [31] was 5.28 µM, the TGI [31] was 11.5 µM and the GI50 [32] was 8.53 µM. The TGI [32] was 33.1 µM, the GI50 [33] was 4.93 µM and the TGI [33] was 11.5 µM. The GI50 [34] was 6.34 µM, the TGI [34] was 17.2 µM and the GI50 [35] was 6.07 µM. It also gave a TGI [35] of 14.8 µM, a GI50 [36] of 0.973 µM and a TGI [36] of 2.79 µM. The GI50 [37] was 7.88 µM, the TGI [37] was 28 µM and the GI50 [38] was 5.5 µM. The TGI [38] was 10.6 µM, the GI50 [39] was 4.88 µM and the TGI [39] was 9.77 µM. For the same compound, the GI50 [40] was 6.57 µM, the TGI [40] was 23.9 µM and the GI50 [41] was 6.79 µM. It also gave a TGI [41] of 13 µM, a GI50 [42] of 5.9 µM and a TGI [42] of 12 µM. It also gave a GI50 [43] of 6.79 µM, a TGI [43] of 13.7 µM and a GI50 [44] of 1.64 µM. It also gave a TGI [44] of 6.47 µM, a GI50 [45] of 5.26 µM and a TGI [45] of 18.2 µM. It also gave a GI50 [46] of 2.46 µM, a TGI [46] of 7.59 µM and a GI50 [47] of 3.61 µM. The TGI [47] was 11.4 µM, the GI50 [48] was 9.11 µM and the TGI [48] was 15.9 µM. The GI50 [49] was 1.49 µM, the TGI [49] was 5.3 µM and the GI50 [50] was 4.51 µM. It also gave a TGI [50] of 11.6 µM, a GI50 [51] of 5.07 µM and a TGI [51] of 11.6 µM. The GI50 [52] was 0.803 µM, the TGI [52] was 1.7 µM and the GI50 [53] was 5.81 µM. The TGI [53] was 10.4 µM, the GI50 [54] was 0.358 µM and the TGI [54] was 5.76 µM. For the same compound, the GI50 [55] was 1.54 µM, the TGI [55] was 6.38 µM and the GI50 [56] was 5.33 µM. The TGI [56] was 13 µM, the GI50 [57] was 3.04 µM and the TGI [57] was 8.04 µM.
